Laboratory results from patent publication US12331094B2 (Bayer Aktiengesellschaft, priority 2018, dated 2025).
Positions of bridges follow the written chain, without caps; N, C: chain ends. Residues, ends and D or L forms follow the SMILES beside them.

Key:
[1] = biological target: T1, neutral endopeptidase (NEP) (Homo sapiens, UniProt P08473); assay: Sensitivity towards proteolytic degradation by NEP (reporter cell activity after incubation); type: in vitro ADME; details: 4 hours incubation with 0.6 μg/ml NEP at 37° C., then reporter cell activity
T1 construct: purchased R&D Systems 1182-ZNC

[2] = biological target: T2, insulin degrading enzyme (IDE) (Rattus norvegicus, UniProt P35559); assay: Sensitivity towards proteolytic degradation by IDE (reporter cell activity after incubation); details: 4 hours incubation with 0.6 μg/ml IDE at 37° C., then reporter cell activity
T2 sequence (P35559 1-1019): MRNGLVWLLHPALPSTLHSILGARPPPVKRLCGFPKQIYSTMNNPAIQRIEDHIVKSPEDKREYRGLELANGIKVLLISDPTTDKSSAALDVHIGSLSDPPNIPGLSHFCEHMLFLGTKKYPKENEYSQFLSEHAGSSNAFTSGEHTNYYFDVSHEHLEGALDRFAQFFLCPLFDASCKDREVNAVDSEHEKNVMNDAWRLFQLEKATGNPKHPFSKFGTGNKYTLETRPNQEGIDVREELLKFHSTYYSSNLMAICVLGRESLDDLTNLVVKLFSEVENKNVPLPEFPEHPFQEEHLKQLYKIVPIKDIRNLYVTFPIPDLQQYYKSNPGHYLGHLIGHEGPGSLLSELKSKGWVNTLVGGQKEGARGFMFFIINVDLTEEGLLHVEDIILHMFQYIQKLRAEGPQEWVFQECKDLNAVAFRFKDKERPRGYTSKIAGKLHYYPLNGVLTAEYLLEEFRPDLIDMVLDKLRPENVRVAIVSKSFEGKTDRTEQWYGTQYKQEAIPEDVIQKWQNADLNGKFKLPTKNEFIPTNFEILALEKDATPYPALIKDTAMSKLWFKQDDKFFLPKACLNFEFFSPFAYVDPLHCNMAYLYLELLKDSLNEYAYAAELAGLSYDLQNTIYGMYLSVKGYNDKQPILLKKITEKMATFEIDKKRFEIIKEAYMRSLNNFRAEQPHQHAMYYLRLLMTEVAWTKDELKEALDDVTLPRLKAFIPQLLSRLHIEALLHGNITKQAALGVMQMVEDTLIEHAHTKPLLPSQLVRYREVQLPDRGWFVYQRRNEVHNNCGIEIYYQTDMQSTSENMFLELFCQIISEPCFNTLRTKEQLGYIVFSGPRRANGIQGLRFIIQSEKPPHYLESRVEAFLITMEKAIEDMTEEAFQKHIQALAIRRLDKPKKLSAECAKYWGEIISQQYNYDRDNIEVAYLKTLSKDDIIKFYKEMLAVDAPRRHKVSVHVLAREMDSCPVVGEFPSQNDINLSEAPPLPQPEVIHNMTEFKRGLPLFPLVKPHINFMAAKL

[3] = system: PE-contracted aortic rings; assay: Vasorelaxation of isolated phenylephrine-contracted rat aortic rings
Description: All experiments were conducted in accordance with institutional guidelines and approved by the local committee on animal experiments. Male Sprague-Dawley rats (weighing 250-300 g) were anesthetized with pentobarbital sodium (40 mg/kg i.p.), killed by decapitation, and exsanguinated. The thoracic aorta was excised and placed in ice-cold Krebs buffer of the following composition: 130 mM NaCl, 14.9 mM NaHCO3, 5.5 mM dextrose, 4.7 mM KCl, 1.18 mM KH2PO4, 1.17 mM MgSO47H2O, and 1.6 mM CaCl22H2O. The vessel was pinned in a Sylgard Petri dish filled with chilled Krebs' solution, cleaned of fat and connective tissue, and cut into ring segments of approximately 3 to 4 mm in length. […] Changes in isometric force were recorded using a PowerLab data acquisition system (software Lab Chart 7.0)
After the equilibration period, aortic rings were challenged with 80 mM KCl to check tissue viability. Next, the endothelial integrity of the preparations was determined by verifying the responsiveness to acetylcholine (ACh, 1 μM) in vessels pre-contracted with Phenylephrine (PE, 1 μM). After wash-out and a period of equilibration, Phenylephrine (PE, 1 μM) was used to induce contraction, thereafter natriuretic peptides and natriuretic peptide engrafted IgGs were evaluated for vasorelaxation.

[4] = system: spontaneously hypertensive rats; assay: Radiotelemetric blood pressure in conscious spontaneously hypertensive rats; type: in vivo, rat; details: 500 μg dose intraperitoneally
Description: Blood pressure and heart rate were monitored in freely moving conscious animals by radiotelemetry (Data Sciences International). Female spontaneously hypertensive rats (SHR/N Crl BR, Charles River) with a body weight of 210-300 g were used for these studies. All animals were housed in individual cages at 22-24° C. ambient temperature and maintained on a 12-hour light/dark cycle with free access to standard laboratory rat chow and water ad libitum. Telemeter (HD-10, DSI) implantation was performed a minimum of 14 days before animals were used for blood pressure measurements. Surgery was performed under aseptic conditions. After shaving the abdominal wall, a midline abdominal incision was made, and the fluid-filled sensor catheter was inserted upstream into the exposed descending aorta between the iliac bifurcation and the renal arteries. According to the DSI guidelines the tip of the telemetric catheter was located caudal to the renal arteries and secured by tissue adhesive. The transmitter body was affixed to the inner peritoneal wall before closure of the abdomen. […] Data are expressed as % of basal values±SEM of at least 4 animals per group. The basal value for each animal was calculated as the average of the values measured in two hours prior to substance application (7:00-9:00 AM). Data are then expressed as averages every half hour, starting 15 minutes post application. […]

T1 sequence (P08473 52-750 limits assumed): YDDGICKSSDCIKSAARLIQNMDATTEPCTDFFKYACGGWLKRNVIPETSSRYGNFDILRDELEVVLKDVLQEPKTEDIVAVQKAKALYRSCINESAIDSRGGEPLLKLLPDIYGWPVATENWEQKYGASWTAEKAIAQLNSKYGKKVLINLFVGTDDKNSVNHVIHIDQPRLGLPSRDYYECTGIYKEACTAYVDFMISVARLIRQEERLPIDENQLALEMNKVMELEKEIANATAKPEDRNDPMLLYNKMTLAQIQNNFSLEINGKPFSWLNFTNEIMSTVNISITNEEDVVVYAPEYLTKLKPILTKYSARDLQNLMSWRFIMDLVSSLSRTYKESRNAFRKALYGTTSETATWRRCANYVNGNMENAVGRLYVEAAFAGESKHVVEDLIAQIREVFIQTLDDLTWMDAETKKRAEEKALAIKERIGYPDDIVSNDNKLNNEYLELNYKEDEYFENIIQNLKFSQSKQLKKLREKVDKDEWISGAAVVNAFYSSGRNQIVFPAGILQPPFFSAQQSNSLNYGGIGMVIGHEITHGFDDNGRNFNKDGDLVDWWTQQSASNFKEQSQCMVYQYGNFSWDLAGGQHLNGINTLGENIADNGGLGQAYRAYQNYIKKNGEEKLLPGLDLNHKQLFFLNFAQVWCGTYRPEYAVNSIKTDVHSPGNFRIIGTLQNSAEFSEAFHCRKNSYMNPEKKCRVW

Compound | proteolytic degradation by NEP [1] | proteolytic degradation by IDE [2] | vasodilation in PE-contracted aortic rings [3] | Potency (log EC50 values) ([3]; vasodilation, endothelium-intact rat aortic rings contracted by phenylephrine (1 μM)) | drop in mean arterial blood pressure (MAP) [4] | duration of effect [4]
CC[C@H](C)[C@@H]1NC(=O)[C@H](CCCNC(=N)N)NC(=O)[C@H](CC(=O)O)NC(=O)[C@H]([C@@H](C)CC)NC(=O)[C@H](CCCCN)NC(=O)[C@H](CCC(N)=O)NC(=O)CNC(=O)[C@H](Cc2ccccc2)NC(=O)[C@@H](NC(=O)[C@H](CO)NC(=O)[C@H](CO)NC(=O)[C@H](CO)NC(=O)[C@H](Cc2c[nH]cn2)NC(=O)[C@H](C)NC(=O)[C@H](CCSC)NC(=O)[C@H](CCCCN)NC(=O)[C@H](CO)NC(=O)[C@@H](N)CC(N)=O)CSSC[C@@H](C(=O)N[C@@H](CC(=O)O)C(=O)NCC(=O)N[C@@H](CC(C)C)C(=O)N[C@@H](CCCNC(=N)N)C(=O)N[C@@H](CC(C)C)C(=O)N[C@@H](Cc2ccccc2)C(=O)O)NC(=O)CNC(=O)[C@H](CC(C)C)NC(=O)[C@H](CCCNC(=N)N)NC(=O)[C@H](CO)NC(=O)[C@H](C(C)C)NC(=O)[C@H](C)NC(=O)CNC1=O [BNP, Brain Natriuretic Peptide, reference compound] (H-NSKMAHSSSCFGQKIDRIGAVSRLGCDGLRLF-OH; disulfide 10-26; N-terminus and C-terminus assumed) | high sensitivity | high sensitivity | – | – | – | –
ANP peptide: Rat ANP peptide (ADH-GM-10057T, Santai Labs) used as a reference (SLRRSSCFGGRIDRIGAQSGLGCNSFRY) [reference compound] | – | – | dose-dependent vasodilation | −7.4 | approximately 25% | 6 to 8 h
